Earlier results, collected in US9597342B2 (UWM Research Foundation, Inc., priority 2011, dated 2017).

Molecular target: all four diazepam-sensitive GABAA receptors
Conditions: Huang et al., J. Med. Chem. 2000; cited from earlier work

CN1C(=O)CN=C(c2ccccc2)c2cc(Cl)ccc21 [diazepam]
Ki: < 25 nM
